Test results published in ChEMBL document CHEMBL1201862, “PubChem BioAssay data set” (2004).
Each block holds one compound with its values, some of them ahead of it. Active and inactive are the calls of the source.

How the values were obtained:
[1] = THP-1 cell cytotoxicity, dose response, cytotoxicity control for Vif-APOBEC3G degradation inhibitor project, THP-1 cells (AID 1117359); type: functional; settings: Human immunodeficiency virus 1, THP-1
Vero = Vero cell cytotoxicity, cytotoxicity control for flavivirus capping enzyme inhibitors (AID 588742); type: functional; settings: Chlorocebus sabaeus
[2] = target: T1, Calpain-2 catalytic subunit (Sus scrofa, UniProt P43367); experiment: pig calpain II inhibitor potency, dose response, biochemical, fluorogenic peptide substrate (AID 1420); type: functional
T1 sequence (P43367 whole entry): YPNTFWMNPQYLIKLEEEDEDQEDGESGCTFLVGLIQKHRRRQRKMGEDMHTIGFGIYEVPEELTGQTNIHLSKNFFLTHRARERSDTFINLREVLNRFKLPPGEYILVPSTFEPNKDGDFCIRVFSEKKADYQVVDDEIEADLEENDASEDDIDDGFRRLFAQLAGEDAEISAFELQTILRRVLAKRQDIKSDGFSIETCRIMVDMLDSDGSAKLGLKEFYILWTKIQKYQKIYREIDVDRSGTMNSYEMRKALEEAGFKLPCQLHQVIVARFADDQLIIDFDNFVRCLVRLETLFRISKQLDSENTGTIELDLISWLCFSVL

[3] = target: Mitogen-activated protein kinase 10 (Homo sapiens, UniProt P53779); experiment: Dose response biochemical screening assay for inhibitors of c-Jun N-Terminal Kinase 3 (JNK3). [Related pubchem assays: 746 ]
Mitogen-activated protein kinase 10, sequence (P53779 whole entry, the tested form may be a part): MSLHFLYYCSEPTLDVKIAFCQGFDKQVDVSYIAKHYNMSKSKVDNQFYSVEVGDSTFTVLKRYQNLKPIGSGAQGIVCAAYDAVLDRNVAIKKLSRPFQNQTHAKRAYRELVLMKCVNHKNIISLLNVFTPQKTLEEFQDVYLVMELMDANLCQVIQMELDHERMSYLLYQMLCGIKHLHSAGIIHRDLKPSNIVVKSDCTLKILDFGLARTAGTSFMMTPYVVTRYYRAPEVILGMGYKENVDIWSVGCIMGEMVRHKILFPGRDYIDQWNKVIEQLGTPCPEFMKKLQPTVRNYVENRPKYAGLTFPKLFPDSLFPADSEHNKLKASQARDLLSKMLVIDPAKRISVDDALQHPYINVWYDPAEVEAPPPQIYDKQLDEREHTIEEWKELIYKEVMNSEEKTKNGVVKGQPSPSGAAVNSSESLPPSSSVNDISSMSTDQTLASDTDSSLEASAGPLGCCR

[4] = target: T2, Oxysterols receptor LXR-beta (Homo sapiens, UniProt P55055); experiment: LXR agonists, Gal4 luciferase reporter, dose response, counter-screen for ssDAF-12 agonist project, cell-based, luminescence, HEK293, S. stercoralis campaign (AID 720737); type: functional; settings: read-out: IC50 (the source's name)
T2 sequence (P55055 whole entry): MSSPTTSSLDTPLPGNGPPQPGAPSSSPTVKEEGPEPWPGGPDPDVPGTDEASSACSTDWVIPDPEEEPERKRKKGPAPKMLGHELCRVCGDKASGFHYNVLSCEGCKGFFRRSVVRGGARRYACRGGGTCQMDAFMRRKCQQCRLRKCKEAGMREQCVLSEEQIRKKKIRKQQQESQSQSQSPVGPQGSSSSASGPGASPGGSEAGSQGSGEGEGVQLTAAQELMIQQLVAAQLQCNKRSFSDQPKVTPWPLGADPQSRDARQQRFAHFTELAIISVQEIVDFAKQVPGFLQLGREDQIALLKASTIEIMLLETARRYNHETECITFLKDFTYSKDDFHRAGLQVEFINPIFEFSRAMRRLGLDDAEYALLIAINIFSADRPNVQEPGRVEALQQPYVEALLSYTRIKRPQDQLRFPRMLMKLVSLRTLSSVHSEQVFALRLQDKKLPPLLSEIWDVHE

[5] = Luminescence-based cell-based high throughput dose response assay to identify activators of the DAF-12 from the parasite S. stercoralis (ssDAF-12).; type: functional
[6] = target: T3, 1-phosphatidylinositol 4,5-bisphosphate phosphodiesterase beta-3 (Homo sapiens, UniProt Q01970); experiment: Fluorescence-based biochemical high throughput dose response assay to identify inhibitors of phospholipase C isozymes (PLC-B3).
T3 sequence (Q01970 whole entry): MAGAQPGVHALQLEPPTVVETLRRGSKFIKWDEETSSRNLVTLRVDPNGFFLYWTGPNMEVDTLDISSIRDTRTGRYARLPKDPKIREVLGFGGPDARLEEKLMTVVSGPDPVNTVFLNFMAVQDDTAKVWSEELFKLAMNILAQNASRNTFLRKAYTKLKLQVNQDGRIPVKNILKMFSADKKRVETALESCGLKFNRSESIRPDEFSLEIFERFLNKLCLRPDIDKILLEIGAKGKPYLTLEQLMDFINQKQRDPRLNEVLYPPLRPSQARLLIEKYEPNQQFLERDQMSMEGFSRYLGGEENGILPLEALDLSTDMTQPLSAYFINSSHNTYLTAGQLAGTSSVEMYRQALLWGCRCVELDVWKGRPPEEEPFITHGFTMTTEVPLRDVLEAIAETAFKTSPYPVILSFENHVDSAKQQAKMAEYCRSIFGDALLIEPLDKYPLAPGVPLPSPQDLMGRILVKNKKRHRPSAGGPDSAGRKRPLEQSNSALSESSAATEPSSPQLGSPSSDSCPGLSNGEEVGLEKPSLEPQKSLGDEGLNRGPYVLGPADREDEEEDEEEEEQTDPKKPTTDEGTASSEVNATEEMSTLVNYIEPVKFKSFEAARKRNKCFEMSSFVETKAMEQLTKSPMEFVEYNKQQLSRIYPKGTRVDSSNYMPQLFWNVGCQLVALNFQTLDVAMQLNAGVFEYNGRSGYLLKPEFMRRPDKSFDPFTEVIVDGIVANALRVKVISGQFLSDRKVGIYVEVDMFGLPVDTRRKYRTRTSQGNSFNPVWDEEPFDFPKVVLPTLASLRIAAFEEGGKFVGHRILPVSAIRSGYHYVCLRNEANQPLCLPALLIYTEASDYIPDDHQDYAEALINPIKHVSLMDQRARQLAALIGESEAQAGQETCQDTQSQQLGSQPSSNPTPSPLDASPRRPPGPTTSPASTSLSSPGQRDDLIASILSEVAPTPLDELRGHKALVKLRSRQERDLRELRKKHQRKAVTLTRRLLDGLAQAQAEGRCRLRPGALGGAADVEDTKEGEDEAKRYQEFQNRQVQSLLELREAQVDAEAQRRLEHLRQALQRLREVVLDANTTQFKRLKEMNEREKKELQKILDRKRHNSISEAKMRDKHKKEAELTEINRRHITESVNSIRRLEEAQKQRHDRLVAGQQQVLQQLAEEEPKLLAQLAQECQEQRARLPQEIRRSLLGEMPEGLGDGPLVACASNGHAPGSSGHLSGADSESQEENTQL

[7] = target: T4, 1-phosphatidylinositol 4,5-bisphosphate phosphodiesterase gamma-1 (Homo sapiens, UniProt P19174); experiment: Counterscreen for inhibitors of phospholipase C isozymes (PLC-B3): Fluorescence-based biochemical high throughput dose response assay to identify inhibitors of phospholipase C isozymes (PLC-gamma1).
T4 sequence (P19174 whole entry): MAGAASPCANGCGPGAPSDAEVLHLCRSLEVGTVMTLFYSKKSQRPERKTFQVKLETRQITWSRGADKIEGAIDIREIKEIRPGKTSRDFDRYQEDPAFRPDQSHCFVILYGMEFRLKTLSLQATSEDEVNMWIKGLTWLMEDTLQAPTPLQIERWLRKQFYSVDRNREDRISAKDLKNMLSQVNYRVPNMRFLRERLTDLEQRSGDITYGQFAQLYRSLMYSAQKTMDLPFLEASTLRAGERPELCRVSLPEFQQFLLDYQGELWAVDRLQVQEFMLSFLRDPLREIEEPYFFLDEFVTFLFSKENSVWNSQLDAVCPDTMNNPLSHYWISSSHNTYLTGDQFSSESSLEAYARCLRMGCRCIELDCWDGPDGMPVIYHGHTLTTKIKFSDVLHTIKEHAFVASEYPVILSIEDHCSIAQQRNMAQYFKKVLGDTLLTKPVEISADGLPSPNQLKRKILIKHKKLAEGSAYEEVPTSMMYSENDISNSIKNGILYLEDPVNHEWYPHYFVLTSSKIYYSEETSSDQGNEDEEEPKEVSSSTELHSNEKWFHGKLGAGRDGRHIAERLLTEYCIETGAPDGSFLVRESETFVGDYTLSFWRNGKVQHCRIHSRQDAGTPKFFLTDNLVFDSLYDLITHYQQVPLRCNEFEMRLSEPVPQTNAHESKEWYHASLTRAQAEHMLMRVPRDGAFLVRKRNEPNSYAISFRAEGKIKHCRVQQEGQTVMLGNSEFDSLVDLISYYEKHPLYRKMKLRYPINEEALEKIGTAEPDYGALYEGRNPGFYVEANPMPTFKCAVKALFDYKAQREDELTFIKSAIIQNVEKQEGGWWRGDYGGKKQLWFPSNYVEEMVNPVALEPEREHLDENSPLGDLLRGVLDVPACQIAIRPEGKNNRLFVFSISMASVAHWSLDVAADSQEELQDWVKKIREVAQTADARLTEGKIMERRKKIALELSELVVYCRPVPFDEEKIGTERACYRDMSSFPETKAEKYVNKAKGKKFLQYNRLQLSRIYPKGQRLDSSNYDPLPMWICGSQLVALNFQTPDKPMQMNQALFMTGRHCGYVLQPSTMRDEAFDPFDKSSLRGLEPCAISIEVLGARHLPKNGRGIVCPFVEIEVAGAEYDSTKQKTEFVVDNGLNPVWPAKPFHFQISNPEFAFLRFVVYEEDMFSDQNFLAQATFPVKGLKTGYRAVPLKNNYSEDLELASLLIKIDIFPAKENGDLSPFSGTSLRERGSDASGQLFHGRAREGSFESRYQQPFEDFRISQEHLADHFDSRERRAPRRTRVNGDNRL

Large T antigen = Large T antigen (Simian virus 40, UniProt P03070); type: functional, Betapolyomavirus macacae;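 further: Confirmatory-stage PubChem screen for compounds that inhibit SV40 T antigen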
Large T antigen, sequence (P03070 whole entry): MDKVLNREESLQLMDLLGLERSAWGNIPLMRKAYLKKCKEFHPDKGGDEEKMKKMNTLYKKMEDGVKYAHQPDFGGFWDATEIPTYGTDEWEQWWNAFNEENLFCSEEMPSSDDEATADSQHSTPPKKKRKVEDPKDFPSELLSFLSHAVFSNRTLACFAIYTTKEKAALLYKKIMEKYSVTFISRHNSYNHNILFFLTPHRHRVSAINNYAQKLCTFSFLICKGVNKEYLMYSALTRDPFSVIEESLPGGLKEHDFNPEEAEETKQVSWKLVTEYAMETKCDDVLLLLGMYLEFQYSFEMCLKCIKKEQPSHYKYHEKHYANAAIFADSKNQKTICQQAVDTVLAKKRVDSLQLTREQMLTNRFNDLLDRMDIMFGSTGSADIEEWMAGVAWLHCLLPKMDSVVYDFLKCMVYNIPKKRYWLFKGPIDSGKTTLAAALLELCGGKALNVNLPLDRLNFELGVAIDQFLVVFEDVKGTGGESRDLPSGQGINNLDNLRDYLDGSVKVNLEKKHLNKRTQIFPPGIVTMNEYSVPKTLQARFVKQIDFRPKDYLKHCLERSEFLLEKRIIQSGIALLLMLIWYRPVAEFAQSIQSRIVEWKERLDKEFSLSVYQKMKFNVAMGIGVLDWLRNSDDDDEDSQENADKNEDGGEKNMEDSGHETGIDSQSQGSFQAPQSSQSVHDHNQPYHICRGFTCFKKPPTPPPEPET

[8] = target: Induced myeloid leukemia cell differentiation protein Mcl-1 (Homo sapiens, UniProt Q07820); type: functional
Induced myeloid leukemia cell differentiation protein Mcl-1, sequence (Q07820 whole entry): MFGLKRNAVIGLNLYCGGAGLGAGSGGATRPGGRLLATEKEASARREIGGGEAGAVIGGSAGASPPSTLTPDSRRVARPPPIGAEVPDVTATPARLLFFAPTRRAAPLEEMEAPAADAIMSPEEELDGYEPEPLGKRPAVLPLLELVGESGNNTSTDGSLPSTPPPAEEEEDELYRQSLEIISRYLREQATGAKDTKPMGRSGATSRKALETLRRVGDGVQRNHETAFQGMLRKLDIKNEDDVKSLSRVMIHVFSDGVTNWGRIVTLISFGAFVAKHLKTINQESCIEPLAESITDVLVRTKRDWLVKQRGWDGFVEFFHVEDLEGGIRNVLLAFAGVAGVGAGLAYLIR

[9] = target: T5, Heat shock factor protein 1 (Mus musculus, UniProt P38532); experiment: HSF1 potentiators in luciferase reporter cells, confirmation, cell-based, NIH3T3, luminescence, dose retest (AID 435004); type: functional;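 further: stress induced by proteasome inhibitor MG132 added 30 min after compound; luciferase reporter driven by HSF1 response element in NIH3T3 cells; actives raise luminescence as potentiators of the MG132 stress response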
T5 sequence (P38532 whole entry): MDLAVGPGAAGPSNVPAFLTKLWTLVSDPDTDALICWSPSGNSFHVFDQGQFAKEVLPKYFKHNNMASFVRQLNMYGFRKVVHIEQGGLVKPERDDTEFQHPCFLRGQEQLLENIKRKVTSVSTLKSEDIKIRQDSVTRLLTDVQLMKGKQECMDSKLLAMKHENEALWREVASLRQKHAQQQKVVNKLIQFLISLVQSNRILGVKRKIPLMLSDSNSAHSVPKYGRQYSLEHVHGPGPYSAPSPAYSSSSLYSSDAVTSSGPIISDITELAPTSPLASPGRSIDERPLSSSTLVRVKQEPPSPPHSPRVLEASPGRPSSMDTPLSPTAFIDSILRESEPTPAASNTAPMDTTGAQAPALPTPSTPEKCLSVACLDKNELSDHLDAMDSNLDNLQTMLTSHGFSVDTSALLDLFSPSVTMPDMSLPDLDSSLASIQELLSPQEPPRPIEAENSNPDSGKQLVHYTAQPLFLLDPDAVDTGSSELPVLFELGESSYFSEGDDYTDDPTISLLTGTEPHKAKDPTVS

Kallikrein-7 = Kallikrein-7 (Homo sapiens, UniProt P49862); experiment: Fluorescence Intensity-based biochemical primary high throughput dose response assay to identify activators of kallikrein-7 (K7) zymogen.
Kallikrein-7, sequence (P49862 whole entry): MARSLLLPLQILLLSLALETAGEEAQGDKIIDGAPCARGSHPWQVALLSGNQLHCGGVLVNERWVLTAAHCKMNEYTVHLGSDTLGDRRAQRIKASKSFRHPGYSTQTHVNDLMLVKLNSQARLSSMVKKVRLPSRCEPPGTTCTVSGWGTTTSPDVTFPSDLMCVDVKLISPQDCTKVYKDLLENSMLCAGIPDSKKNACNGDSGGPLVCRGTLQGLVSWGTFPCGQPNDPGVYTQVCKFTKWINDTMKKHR

[10] = target: Luciferin 4-monooxygenase (Photinus pyralis, UniProt P08659); experiment: firefly luciferase enzyme inhibitors, dose response, biochemical, luminescence (AID 1891)
Luciferin 4-monooxygenase, sequence (P08659 whole entry): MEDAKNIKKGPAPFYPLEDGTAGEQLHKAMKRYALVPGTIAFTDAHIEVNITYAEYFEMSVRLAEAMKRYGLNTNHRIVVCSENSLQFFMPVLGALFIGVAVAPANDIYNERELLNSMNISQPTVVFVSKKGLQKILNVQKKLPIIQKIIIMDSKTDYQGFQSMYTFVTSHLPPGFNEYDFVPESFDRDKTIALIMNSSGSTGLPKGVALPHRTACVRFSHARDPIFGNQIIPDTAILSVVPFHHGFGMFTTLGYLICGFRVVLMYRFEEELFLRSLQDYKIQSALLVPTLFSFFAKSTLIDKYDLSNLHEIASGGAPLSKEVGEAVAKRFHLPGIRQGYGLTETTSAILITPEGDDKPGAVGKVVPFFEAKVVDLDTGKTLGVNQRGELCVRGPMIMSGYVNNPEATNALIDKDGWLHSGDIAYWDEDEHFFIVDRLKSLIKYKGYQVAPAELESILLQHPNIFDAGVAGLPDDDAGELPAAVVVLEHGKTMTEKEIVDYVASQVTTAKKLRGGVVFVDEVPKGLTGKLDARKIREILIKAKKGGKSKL

[11] = target: T6, Rac GTPase-activating protein 1 (Homo sapiens, UniProt Q9H0H5); experiment: MgcRacGAP GTPase-activating activity inhibitors, confirmation, biochemical, ADP Hunter fluorescence, primary and confirmatory (AID 624330); type: functional
T6 sequence (Q9H0H5 whole entry): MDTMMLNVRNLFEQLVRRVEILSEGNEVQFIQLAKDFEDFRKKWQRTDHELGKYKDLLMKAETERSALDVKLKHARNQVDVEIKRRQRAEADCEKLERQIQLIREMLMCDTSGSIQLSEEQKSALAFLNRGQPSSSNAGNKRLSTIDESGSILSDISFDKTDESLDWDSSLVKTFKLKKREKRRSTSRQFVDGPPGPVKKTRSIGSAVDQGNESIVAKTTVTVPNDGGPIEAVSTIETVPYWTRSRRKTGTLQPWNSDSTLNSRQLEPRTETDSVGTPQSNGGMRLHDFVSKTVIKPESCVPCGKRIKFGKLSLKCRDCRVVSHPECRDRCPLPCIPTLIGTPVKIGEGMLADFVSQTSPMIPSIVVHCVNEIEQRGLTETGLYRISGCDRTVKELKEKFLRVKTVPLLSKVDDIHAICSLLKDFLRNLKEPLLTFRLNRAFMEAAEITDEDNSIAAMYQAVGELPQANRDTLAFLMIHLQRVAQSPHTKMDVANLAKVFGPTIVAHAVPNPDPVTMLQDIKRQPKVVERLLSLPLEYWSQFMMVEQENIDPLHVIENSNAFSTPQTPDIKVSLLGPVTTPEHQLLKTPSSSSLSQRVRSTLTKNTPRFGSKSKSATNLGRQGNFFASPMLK

[12] = Luminescence Cell-Based Dose Confirmation HTS to Identify Inhibitors of Platelet Dense Granule Release. [Related pubchem assays: 1663 (Primary HTS), 1678 (Summary of Project)]; type: functional

SMILES: O=C(CN1C(=O)/C(=C\c2cccs2)SC1=S)Nc1cccc(C(=O)O)c1
CC50 [1]: > 40 µM (active)

SMILES: CC(C)NC(=O)c1nc2ccccc2s1
EC50 [4]: > 67.5 µM (inactive)
IC50 [5]: > 67.5 µM (inactive)

SMILES: O=C(OCC1O[C@@H](OC(=O)c2cc(O)c(O)c(O)c2)[C@@H](OC(=O)c2cc(O)c(O)c(O)c2)[C@@H](OC(=O)c2cc(O)c(O)c(O)c2)[C@@H]1OC(=O)c1cc(O)c(O)c(O)c1)c1cc(O)c(O)c(O)c1 (stereo not given in full)
IC50 (Large T antigen): 4.51 µM (active)
CC50 [1]: 20.6 µM (active)
IC50 [8]: 4.54 µM (active)

SMILES: O=[N+]([O-])c1ccc(Sc2ncccn2)c([N+](=O)[O-])c1
IC50 [6]: > 123 µM (inactive)
IC50 [7]: > 123 µM (inactive)
EC50 [9]: 6.83 µM (active)

SMILES: O=C(/C=C/c1ccccc1)c1c[nH]c2ccccc12
EC50 [4]: > 67.4 µM (inactive)
IC50 [5]: > 67.4 µM (inactive)

SMILES: COc1ccc(OC)c(/C=N/NC(=O)CN2CCSCC2)c1
EC50 (Kallikrein-7): 10.5 µM (inactive)

SMILES: COc1ccc(/C=N/Nc2nc3ccccc3s2)cc1O
EC50 [10]: 0.947 µM (active)
IC50 [11]: 102 µM (active)
EC50 [12]: 5.38 µM (active)
EC50 [4]: > 67.5 µM (inactive)
IC50 [5]: > 67.5 µM (inactive)

Further lines, with some results ahead:

IC50 [2]: 13 µM (not active)
SMILES: COc1cc(CNc2ccc(O)cc2)cc(Br)c1OCc1ccccc1
CC50 (Vero): > 40 µM (active)
CC50 [1]: > 40 µM (active)

IC50 [3]: 62.9 µM (not active)
SMILES: O=C(Nc1nncs1)c1ccc(N2C(=O)C3C4C=CC(C4)C3C2=O)cc1 (stereo not given)

IC50 [6]: > 122 µM (inactive)
IC50 [7]: > 122 µM (inactive)
SMILES: O=C(Cc1cccs1)N1CCC(c2nc(O)c3nnn(Cc4ccccc4)c3n2)CC1

IC50 [3]: 72.6 µM (not active)
SMILES: Cn1c(C(=O)N2CCN(Cc3ccc4c(c3)OCO4)CC2)cc2c(=O)n(C)c3ccccc3c21

EC50 (Kallikrein-7): > 69.6 µM (inactive)
SMILES: Cc1cc(=O)oc2cc(OCC(=O)N3CCOCC3)c(Cl)cc12
